Like-named read-outs stand apart in the source and are kept apart here.
How the values were obtained:
Format in all cases: biochemical
[1] = molecular target: T1, recombinant HGFA serine protease domain (Homo sapiens, UniProt Q04756); assay: Fluorescent kinetic enzyme assay of HGFA activity (Boc-QLR-AMC)
T1 construct: His6 tag (N); seven amino acid spacer plus TEV cleavage site (N); made in house; host or cells: High 5 insect cells (baculovirus; Sf9 for virus production)
T1 sequence (Q04756 373-655): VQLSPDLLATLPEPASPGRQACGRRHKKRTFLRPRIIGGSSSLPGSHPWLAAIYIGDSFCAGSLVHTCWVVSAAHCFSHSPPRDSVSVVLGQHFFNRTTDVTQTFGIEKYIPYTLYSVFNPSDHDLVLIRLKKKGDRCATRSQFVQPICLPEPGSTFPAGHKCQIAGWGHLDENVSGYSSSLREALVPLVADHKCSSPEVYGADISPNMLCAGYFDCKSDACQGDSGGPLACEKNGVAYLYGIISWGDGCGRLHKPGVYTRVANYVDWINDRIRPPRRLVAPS
Description: The compounds prepared in Examples 1 to 8 were subjected to a series of inhibitions studies. The compounds were first tested in an HGFA enzymatic assay using the fluorogenic substrate Boc-QLR-AMC with a recombinant form of the HGFA serine protease domain.
This PCR product was cloned into the SfoI-HindIII sites of a modified pFastBac HT baculovirus expression vector (Addgene, Cambridge, MA). This vector contains a six amino His tag followed by a seven amino spacer and a seven amino acid TEV cleavage site placed immediately downstream of the honey bee melittin signal peptide. Using a modified Bac to Bac Expression System (Life Technologies, Carlsbad, CA), recombinant HGFA bacmids were obtained by transforming DH10Bac Escherichia coli cells. To obtain HGFA containing baculovirus, purified bacmids were transfected into Sf9 insect cells. After 5 days in culture at 27° C., media was harvested from transfected Sf9 cells. This media was used to prepare baculovirus infected insect cells (BIICs). These BIIICs were used to infect High 5 insect cells. Four days post infection, media was harvested, and recombinant protein was prepared as follows. Media was chilled to 4° C. and spun at 4000×g for 20 minutes (all subsequent steps were performed at 4° C. unless noted). Clarified media was passed first through a Whatman GF/B 1 um (#1821-047, GE Healthcare Life Sciences, Piscataway, NJ) and then a 0.22 μm PES membrane (#99955, TPP Techno Plastic Products AG, Trasadingen, Switzerland) and then concentrated using a Pall Centramate tangential flow system and Centramate T-series Cassette (#OS010T12, Pall Corporation, Port Washington, NY). Concentrated media was then buffer exchanged in two steps, five volumes of 50 mM Na-phosphate, 500 mM NaCl, pH 6.2, followed by five volumes of 50 mM Na-phosphate, 500 mM NaCl, pH 7.5. […] After mixing this slurry for 12 hours, nickel agarose beads were allowed to settle by gravity and then loaded into a column. Beads were washed with buffer (25 mM Na-phosphate, 500 mM NaCl, 25 mM imidazole, pH 8) and the bound protein eluted using (25 mM Na-phosphate, 500 mM NaCl, 250 mM imidazole, pH 8). Using a Amicon Ultra-4 Centrifugal filters (#UFC801008, Merck Millipore, Ltd., Tullagreen, Ireland), peak protein fractions were concentrated and run over a Superdex-200 10/300 GL column (GE Healthcare Life Sciences, Piscataway, NJ) in 10 mM Tris, 200 mM NaCl, 0.2 mM EDTA, pH 8. HGFA containing fractions were pooled, concentrated, made 50% glycerol, and stored at minus 20° C. Protein was quantitated using a modified Lowry protein assay (#500-0006, Bio-Rad Laboratories, Hercules, CA) and specific activity determined using Boc-QLR-AMC substrate.
Fluorescent kinetic enzyme assays of HGFA, matriptase, and hepsin activity: Compounds (0-20 μM final concentration in reaction) were diluted in DMSO (2% DMSO final concentration in reaction) and then mixed with either recombinant HGFA serine protease domain, matriptase (#3946-SE-010, R&D Systems, Minneapolis, Minnesota), or activated hepsin* (#4776-SE-010, R&D Systems, Minneapolis, Minnesota) in black 384 well plates (Corning #3575. Coming, NY). The final assay concentration for HGFA, matriptase, and hepsin, were 6.25 nM, 0.2 nM, and 0.3 nM, respectively in TNC buffer (25 mM Tris, 150 mM NaCl, 5 mM CaCl2, 0.01% Triton X-100, pH 8). After thirty minutes of incubation at room temperature, Boc-QLR-AMC substrate was added (HGFA assay) or Boc-QAR-AMC substrate (matriptase, and hepsin assays). Fluorescence (excitation at 380 nm and emission at 460 nm) was kinetically measured at room temperature over a 1 hour time period using a Biotek Synergy 2 plate reader (Winnoski, VT). From a plot of the mean reaction velocity versus the inhibitor concentration, a non-linear four parameter curve fit was performed using GraphPad Prism (GraphPad Software, San Diego, CA) to determine inhibitor IC50s. The IC50 values were determined from the average of three or more separate experimental determinations. […]

matriptase = molecular target: T2, matriptase (Homo sapiens, UniProt Q9Y5Y6); assay: Fluorescent kinetic enzyme assay of matriptase activity (Boc-QAR-AMC)
T2 construct: purchased R&D Systems 3946-SE-010
T2 sequence (Q9Y5Y6 615-855 limits assumed): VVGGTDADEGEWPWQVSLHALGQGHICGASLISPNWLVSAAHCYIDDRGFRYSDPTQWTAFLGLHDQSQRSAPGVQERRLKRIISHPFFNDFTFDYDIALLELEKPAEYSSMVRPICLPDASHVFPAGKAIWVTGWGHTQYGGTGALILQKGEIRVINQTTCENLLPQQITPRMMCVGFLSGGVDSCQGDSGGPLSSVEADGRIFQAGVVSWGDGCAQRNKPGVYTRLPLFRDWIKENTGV

activated hepsin = molecular target: T3, activated hepsin (Homo sapiens, UniProt P05981); assay: Fluorescent kinetic enzyme assay of hepsin activity (Boc-QAR-AMC)
T3 construct: purchased R&D Systems 4776-SE-010

recombinant thrombin = recombinant thrombin (Homo sapiens, UniProt P00734); assay: Chromogenic kinetic enzyme assay of thrombin (S2238)
Procedure: (§1) Using GraphPad Prism (GraphPad Software, San Diego, CA), a four-parameter curve fit was used to determine the inhibitor IC50s from a plot of the mean reaction velocity versus the inhibitor concentration. The IC50 values represent the average of three or more separate experimental determinations. Apparent Ki values were calculated from the IC50 values using the Cheng and Prusoff equation (Ki=IC50/(1+[S]/Km).
(§2) Using GraphPad Prism version 6.04 software program, (GraphPad Software, San Diego, CA, graphpad.com), a four parameter curve fit was used to determine the inhibitor IC50s from a plot of the mean reaction velocity versus the inhibitor concentration.
(§3) Fluorescent inhibitor and chromogenic proteolytic assays were performed for compounds prepared in Example 11 in general accordance with the procedures described in Example 9.

Factor Xa = Factor Xa (Homo sapiens, UniProt P00742); assay: Chromogenic kinetic enzyme assay of Factor Xa (S2222)
Procedure: as §1, §2, §3

[2] = Example 12, read-out: IC50 for matriptase
[3] = Example 12, read-out: IC50 for hepsin
[4] = Table 3, average of three experiments, read-out: Thrombin IC50
[5] = Table 2, chromogenic assay, read-out: Thrombin* (IC50 nM)
[6] = Table 2, read-out: HGFA (IC50 nM)
[7] = Table 2, read-out: Matriptase (IC50 nM)
[8] = Table 2, read-out: Hepsin (IC50 nM)
[9] = Table 2, chromogenic assay, read-out: Factor Xa* (IC50 nM)

Factor Xa, sequence (P00742 235-488 limits assumed): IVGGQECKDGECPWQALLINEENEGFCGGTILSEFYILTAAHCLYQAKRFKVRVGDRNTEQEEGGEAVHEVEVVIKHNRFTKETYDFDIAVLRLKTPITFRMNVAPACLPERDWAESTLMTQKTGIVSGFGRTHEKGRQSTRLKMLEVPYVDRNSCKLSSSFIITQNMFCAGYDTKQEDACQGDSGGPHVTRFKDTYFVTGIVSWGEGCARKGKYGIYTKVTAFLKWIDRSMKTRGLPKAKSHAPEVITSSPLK
Factor Xa, sequence (P00742 41-179 partner limits assumed): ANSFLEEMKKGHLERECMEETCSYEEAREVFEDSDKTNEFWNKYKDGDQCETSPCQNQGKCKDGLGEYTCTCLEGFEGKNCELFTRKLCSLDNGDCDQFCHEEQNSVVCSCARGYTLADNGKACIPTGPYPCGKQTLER
T3 sequence (P05981 163-417 limits assumed): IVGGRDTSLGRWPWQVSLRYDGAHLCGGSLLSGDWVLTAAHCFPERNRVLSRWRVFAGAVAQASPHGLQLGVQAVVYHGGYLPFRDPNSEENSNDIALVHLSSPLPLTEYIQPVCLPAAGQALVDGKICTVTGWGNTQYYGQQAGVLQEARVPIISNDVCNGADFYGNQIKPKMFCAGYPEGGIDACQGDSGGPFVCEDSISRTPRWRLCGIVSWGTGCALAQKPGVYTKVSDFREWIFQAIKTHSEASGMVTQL
T3 sequence (P05981 1-162 partner limits assumed): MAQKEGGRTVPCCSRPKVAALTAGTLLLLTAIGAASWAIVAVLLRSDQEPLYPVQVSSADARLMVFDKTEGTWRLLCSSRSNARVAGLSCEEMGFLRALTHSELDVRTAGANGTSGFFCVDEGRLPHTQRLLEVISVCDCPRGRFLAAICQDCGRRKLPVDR

| Structure (SMILES) | IC50 (recombinant thrombin; [5]) | IC50 [1, 6] | IC50 (matriptase; [7]) | IC50 (activated hepsin; [8]) | IC50 (Factor Xa; [9]) | other results |
| --- | --- | --- | --- | --- | --- | --- |
| CC(C)C[C@H](NC(=O)OC1(Cc2ccccc2)CCNCC1)C(=O)N[C@@H](CCCNC(=N)N)C(=O)c1nc2ccccc2s1 [Compound 8b, 4-benzylpiperidin-4-yl((S)-1-(((S)-1-(benzo[d]thiazol-2-yl)-5-guanidino-1-oxopentan-2-yl)amino)-4-methyl-1-oxopentan-2-yl)carbamate] |  |  |  |  |  | IC50 ([1]; Table 3, average of three experiments, read-out: HGFA IC50): 1200 nM; IC50 (matriptase; [2]): 30 nM; IC50 (activated hepsin; [3]): 0.6 nM; IC50 (recombinant thrombin; [4]): > 20000 nM |
| CC(=O)N1CCC(CCc2ccccc2)(OC(=O)N[C@@H](CC(C)C)C(=O)N[C@@H](CCCNC(=N)N)C(=O)c2nc3ccccc3s2)CC1 [Compound 8c, 1-acetyl-4-phenethylpiperidin-4-yl ((S)-1-(((S)-1-(benzo[d]thiazol-2-yl)-5-guanidino-1-oxopentan-2-yl)amino)-4-methyl-1-oxopentan-2-yl)carbamate] |  |  |  |  |  | IC50 (matriptase; [2]): 70 nM; IC50 (activated hepsin; [3]): 0.5 nM; IC50 (recombinant thrombin; [4]): 7700 nM; IC50 (Factor Xa; Table 3, average of three experiments, read-out: Factor Xa IC50): 2000 nM |
| CSCCC[C@H](NC(C)=O)C(=O)N[C@@H](CCC(N)=O)C(=O)N[C@@H](Cc1ccccc1)C(=O)N[C@@H](CCCNC(=N)N)C(=O)c1nc2ccccc2s1 [MM3130, Ac-MQFR-kbt] | > 20000 nM |  |  |  |  |  |
| CC(=O)N[C@@H](CCC(N)=O)C(=O)N[C@@H](Cc1ccccc1)C(=O)NC(CCCNC(=N)N)C(=O)c1nc2ccccc2s1 (some centres unmarked) [MM3144, Ac-QFR-kbt] | > 20000 nM |  |  |  |  |  |
| CC(C)C[C@@H]1NC(=O)[C@@H](N)CC(=O)NCCCC[C@@H](C(=O)N[C@@H](CCCNC(=N)N)C(=O)c2nc3ccccc3s2)NC1=O [VD2055, (3S,6S,14S)-6-amino-N—((S)-1-(benzo[d]thiazol-2-yl)-5-guanidino-1-oxopentan-2-yl)-3-isobutyl-2,5,8-trioxo-1,4,9-triazacyclotetradecane-14-carboxamide] |  | 11400 nM | 0.86 nM | 0.46 nM | 1550 nM |  |
| CC(=O)N[C@H]1CCCCNC(=O)CC[C@@H](C(=O)N[C@@H](CCCNC(=N)N)C(=O)c2nc3ccccc3s2)NC(=O)[C@H](CC(C)C)NC1=O [VD2064, (2S,5S,14S)-14-acetamido-N—((S)-1-(benzo[d]thiazol-2-yl)-5-guanidino-1-oxopentan-2-yl)-2-isobutyl-3,8,15-trioxo-1,4,9-triazacyclopentadecane-5-carboxamide] |  | 4470 nM | 4.4 nM | 1.7 nM | 723 nM |  |
| CC(=O)N[C@H]1CCCCNC(=O)C[C@@H](C(=O)N[C@@H](CCCNC(=N)N)C(=O)c2nc3ccccc3s2)NC(=O)[C@H](CC(C)C)NC1=O [VD2167, (2S,5S,13S)-13-acetamido-N—((S)-1-(benzo[d]thiazol-2-yl)-5-guanidino-1-oxopentan-2-yl)-2-isobutyl-3,7,14-trioxo-1,4,8-triazacyclotetradecane-5-carboxamide] |  |  | 19.6 nM | 25.1 nM | 1160 nM |  |
| CC(=O)N[C@H]1CCC(=O)NCCCC[C@@H](C(=O)N[C@@H](CCCNC(=N)N)C(=O)c2nc3ccccc3s2)NC(=O)[C@H](CC(C)C)NC1=O [VD2169, (2S,5S,14S)-14-acetamido-N—((S)-1-(benzo[d]thiazol-2-yl)-5-guanidino-1-oxopentan-2-yl)-2-isobutyl-3,11,15-trioxo-1,4,10-triazacyclopentadecane-5-carboxamide] |  |  | 3.1 nM | 8.4 nM | 1710 nM |  |
| CC(=O)N[C@H]1CC(=O)NCCCC[C@@H](C(=O)N[C@@H](CCCNC(=N)N)C(=O)c2nc3ccccc3s2)NC(=O)[C@H](C)NC1=O [VD3141, (3S,6S,14S)-6-acetamido-N—((S)-1-(benzo[d]thiazol-2-yl)-5-guanidino-1-oxopentan-2-yl)-3-methyl-2,5,8-trioxo-1,4,9-triazacyclotetradecane-14-carboxamide] | > 20000 nM | 13700 nM | 2.5 nM | 8.8 nM |  |  |
| CC(=O)N[C@H]1Cc2ccc(cc2)OC/C=C\CNC(=O)CC[C@@H](C(=O)N[C@@H](CCCNC(=N)N)C(=O)c2nc3ccccc3s2)NC(=O)[C@H](CC(C)C)NC1=O [VD4018, (11S,14S,17S,Z)-17-acetamido-N—((S)-1-(benzo[d]thiazol-2-yl)-5-guanidino-1-oxopentan-2-yl)-14-isobutyl-8,13,16-trioxo-2-oxa-7,12,15-triaza-1(1,4)-benzenacyclooctadecaphan-4-ene-11-carboxamide] |  |  | 9.84 nM | 6.31 nM | 1240 nM |  |
| CC(=O)N[C@H]1CCCCn2cc(nn2)C[C@H](C(=O)N[C@H](CCCNC(=N)N)C(=O)c2nc3ccccc3s2)NC(=O)[C@H](CC(C)C)NC1=O [VD4118B] |  | 10900 nM | 91.2 nM | 137 nM | 9540 nM |  |
| CC(=O)N[C@H]1CCCCn2cc(nn2)C[C@H](C(=O)N[C@@H](CCCNC(=N)N)C(=O)c2nc3ccccc3s2)NC(=O)[C@H](CC(C)C)NC1=O [VD4118] |  | 15600 nM | 19.5 nM | 117 nM | 1930 nM |  |
| CC(=O)N[C@H]1Cc2ccc(cc2)OCCCC[C@@H](C(=O)N[C@@H](CCCNC(=N)N)C(=O)c2nc3ccccc3s2)NC(=O)[C@@H](Cc2c[nH]c3ccccc23)NC1=O [VD4162B] | 14600 nM |  |  |  | 1110 nM |  |
